Test results taken from the Kinase Knowledgebase extract (Sharma et al. 2016).
pKi: −log10 of the molar value.

biological target: CDK2 (UniProt P24941); test: Enzyme Assay

Cc1cc(Nc2nc(Nc3ccc(CC#N)cc3)nc3ccccc23)[nH]n1 and CCc1ccc(Nc2nc(Nc3cc(C4CC4)n[nH]3)c3ccccc3n2)cc1 cannot be ordered by pKi: > 6.00 for the first, > 6.00 for the second.

Compared with CC(=O)Nc1ccc(Sc2nc(Nc3cc(C4CC4)n[nH]3)c3ccccc3n2)cc1, CC(=O)Nc1ccc(Sc2nc(Nc3cc(C)n[nH]3)c3ccccc3n2)cc1 is lower in pKi: > 6.00 for the first, 4.70 to 6.00 for the second.

Cc1cc(Nc2nc(Nc3ccc4ncsc4c3)nc3ccccc23)[nH]n1 and c1ccc2c(Nc3cc(C4CC4)n[nH]3)nc(Nc3ccc4ncsc4c3)nc2c1 cannot be ordered by pKi: > 6.00 for the first, > 6.00 for the second.

First: Cc1cccc(Sc2nc(Nc3cc(C)n[nH]3)c3ccccc3n2)c1
Second: CCCS(=O)(=O)Nc1ccc(Sc2nc(Nc3cc(C)n[nH]3)c3ccccc3n2)cc1
The pKi of the first is higher: > 6.00 for the first, 4.70 to 6.00 for the second.

OCCc1ccc(Nc2nc(Nc3cc(C4CC4)n[nH]3)c3ccccc3n2)cc1 and N#CCc1ccc(Nc2nc(Nc3cc(C4CC4)n[nH]3)cc(-c3ccccc3)n2)cc1 cannot be ordered by pKi: > 6.00 for the first, > 6.00 for the second.

COc1cccc2c(Nc3cc(C)n[nH]3)nc(Sc3ccc(NC(C)=O)cc3)nc12 and CC(=O)Nc1ccc(Sc2nc(Nc3cc(C)n[nH]3)c3cccc(O)c3n2)cc1 fall in the same range of pKi: 4.70 to 6.00 for the first, 4.70 to 6.00 for the second.

In the case of COc1ccc2c(Nc3cc(C)n[nH]3)nc(Sc3ccc(NC(C)=O)cc3)nc2c1, the pKi was 4.70 to 6.00.
